Like-named read-outs stand apart in the source and are kept apart here.

Data set [1] concerns SARS-CoV. As to the kind of experiment: microbe, parasite or virus in culture. It counts as cell-based. The settings on record: Severe acute respiratory syndrome coronavirus, HAE, read-out: EC50 SARS (HAE).
The test system of data set [2] is MERS-CoV. As to the kind of experiment: microbe, parasite or virus in culture. It counts as cell-based. Particulars: Middle East respiratory syndrome-related coronavirus, HAE, read-out: EC50 MERS (HAE).
In data set [3] the test system is Junin virus. As to the kind of experiment: microbe, parasite or virus in culture. In kind it is cell-based. The settings on record: Mammarenavirus juninense, Vero; for EC90: read-out: EC90 Junin Vero.
A short description of data set [4]: in vitro. Particulars: human.
The nature of data set [5]: in vitro. Particulars: human. The source holds these as a separate data set.
Data set [6] relates to MERS-CoV (Strain Jordan N3). As to the kind of experiment: microbe, parasite or virus in culture. It counts as cell-based. The settings on record: Middle East respiratory syndrome-related coronavirus, Vero, read-out: EC50 MERS-CoV Vero.
The next data set deals with Lassa virus. As to the kind of experiment: microbe, parasite or virus in culture. The settings on record: Mammarenavirus lassaense, HeLa; for EC50: read-out: EC50 HCS Lassa HeLa; for EC90: read-out: EC90 HCS Lassa HeLa. It counts as cell-based.
Data set [7] deals with Junin virus. Kind of data set: microbe, parasite or virus in culture. In kind it is cell-based. Particulars: Mammarenavirus juninense, HeLa; for EC50: read-out: EC50 HCS Junin HeLa; for EC90: read-out: EC90 HCS Junin HeLa.
Data set [8] relates to SARS-CoV. The arrangement: species or system mice. Particulars: mouse, in vivo.
Data set [9] deals with MERS-CoV. Kind of data set: microbe, parasite or virus in culture. It counts as cell-based. Particulars: Middle East respiratory syndrome-related coronavirus, Calu-3 2B4, read-out: EC50 MERS (Calu-3).
In data set [10] the test system is SARS-CoV. As to the kind of experiment: microbe, parasite or virus in culture. It counts as cell-based. The settings on record: Severe acute respiratory syndrome coronavirus, Calu-3 2B4, read-out: EC50 SARS (Calu-3).
For data set [11], the system named is MERS-CoV isolate HCoV-EMC/2012. The arrangement: species or system rhesus monkeys. Particulars: rhesus monkey, in vivo.
The conditions of data set [12]: mouse, in vivo.

Turning to `N#C[C@@]1(c2ccc3c(N)ncnn23)O[C@H](CO)[C@@H](O)[C@H]1O` [Compound 1, (2R,3R, 4S, 5R)-2-(4-aminopyrrolo[1,2-f][1,2,4]triazin-7-yl)-3,4-dihydroxy-5-(hydroxymethyl)tetrahydrofuran-2-carbonitrile], the EC50 worked out at 220 nM in the data set with SARS-CoV [1] and 460 nM with MERS-CoV [2]. Further, in the data set with Junin virus [3], the EC90 was greater than 47000 nM. Besides, the CC50 in “in vitro [4]” and in “in vitro [5]” was greater than 100000 nM each time.
For the compound `CCC(CC)COC(=O)[C@H](C)NP(=O)(OC[C@H]1O[C@@](C#N)(c2ccc3c(N)ncnn23)[C@H](O)[C@@H]1O)Oc1ccccc1` (stereo partly drawn) [Compound 9, (2S)-2-ethylbutyl 2-((((2R,3S,4R,5R)-5-(4-aminopyrrolo[1,2-f][1,2,4]triazin-7-yl)-5-cyano-3,4-dihydroxytetrahydrofuran-2-yl)methoxy)(phenoxy)phosphorylamino)propanoate], the EC50 in data set [6] was 460 nM; with Junin virus [3] (read-out: EC50 Junin Vero), greater than 47000 nM; with Lassa virus, 2000 nM; with Junin virus [7], 490 nM. Moreover, the EC90 with Junin virus [3] is greater than 47000 nM; in the data set with Lassa virus, 4210 nM; with Junin virus [7], 1250 nM.
Regarding `CCC(CC)COC(=O)[C@H](C)N[P@](=O)(OC[C@H]1O[C@@](C#N)(c2ccc3c(N)ncnn23)[C@H](O)[C@@H]1O)Oc1ccccc1` [Compound 32, (S)-2-ethylbutyl 2-(((S)-(((2R,3S,4R,5R)-5-(4-aminopyrrolo[2,1-f][1,2,4]triazin-7-yl)-5-cyano-3,4-dihydroxytetrahydrofuran-2-yl)methoxy)(phenoxy)phosphoryl)amino)propanoate], the EC50 in the data set with SARS-CoV [1] worked out at 69 nM. Also, in the data set with SARS-CoV [8], the “Changes in body weight post infection” value was “no evidence of weight loss”; the “Expiration Time and End Expiratory Pause (whole body plethysmography)” value was “reduced”; the “Infectious virus in lung tissue by plaque assay” value was “significantly decreased”; the “Penh values (whole body plethysmography)” value is “lower compared to vehicle-treated animals”. Moreover, the EC50 in the data set with MERS-CoV [2] is 74 nM. In addition, in the data set on MERS-CoV [9], the EC50 is 30 nM. For the same compound, the EC50 in data set [6] came out at 580 nM. The EC50 in the data set on SARS-CoV [10] amounted to 10 nM. In the data set on Lassa virus, the concentration giving a half-maximal response (EC50) turned out to be 1650 nM and the EC90 is 3310 nM. In “in vitro [4]”, this compound came in with a CC50 greater than 10000 nM. This compound had a CC50 in the data set “in vitro [5]” greater than 10000 nM. In data set [11], the Respiration rates result is “tended to be higher at Day 6 in vehicle-treated animals”; the “Viral RNA in the liver, spleen, kidney and bladder tissue” value was “below the limit of detection”; the “Viral RNA in the mediastinal lymph node” value is listed as “detected in all animals”; the “Viral RNA in the respiratory tract” value is “significantly reduced”. Moreover, in [11], the “Viral load in nose swabs and throat swabs” value is reported as “no difference in viral load”. In [11] (iv, 10 mg/kg), the “Body weight and body temperature during the course of the infection” value was “did not change appreciably”; the Cumulative clinical scores entry is on record as “notably higher in vehicle-treated animals”; the Disease symptoms result is listed as “less pronounced”. The Plasma stability result in [12] was “improved the plasma stability”. In the data set with Junin virus [7], the EC50 was 470 nM and the EC90 was determined as 1260 nM.

The term EC50 denotes the concentration giving half of the maximal effect. What is called EC90 is the point of the concentration-response curve where the effect stands at 90%.

Values taken from patent US11007208B2 (priority 2015, dated 2021).
